Test results reported in article PMC13114161 (Antibiotics, 2026).

What was measured:
Cav1.2 = molecular target: T1, Cav1.2 (Homo sapiens, UniProt Q13936); experiment: QPatch ion channel assay; assay type: cell-based; conditions: read-out: % Inhibition (n = 2), Cav1.2
T1 construct: host or cells: HEK293
Text: (§1) The automated whole-cell patch-clamp (Qpatch HT) technique is used to record depolarizing currents, hNav1.5 and hCav1.2, and repolarizing potassium currents, hERG. Cells Recombinant HEK-293 cells stably transfected with human Nav1.5 cDNA, Recombinant HEK293 cell line expressing the human Cav1.2 (L-type voltage-gated calcium channel, hCav1.2 α1C/β2a/α2δ1, and recombinant CHO-K1 cells stably transfected with human hERG cDNA are used separately in each of these assays. The cells are harvested by Accutase and maintained in Serum-Free Medium at room temperature before assay. On the instrument, the cells are pipetted into each well of a 48-well plate in external solution. Test concentration stock solution is prepared in DMSO at 300× the final assay concentrations, and stored at −20 °C until the day of assay. On the day of the assay, an aliquot of the stock solution is thawed and diluted into external solution to make final test concentrations. A final concentration of 0.33% DMSO is maintained for each concentration of the assay compounds and controls. The assay is conducted at room temperature. Recording conditions hNav1.5 Peak current Onset and steady state block of peak Nav1.5 current are measured using a pulse pattern, repeated every 5 sec, consisting of a hyperpolarizing pulse to −120 mV for a 200 ms duration, depolarization to −15 mV amplitude for a 40 ms duration, followed by a step to 40 mV for 200 ms and finally a 100 ms ramp (1.2 V/s) to a holding potential of −80 mV. hCav1.2 currents are evoked following a 100 ms pulse to −60 mV followed by a 50 ms pulse to +10 mV before returning to the holding potential of −90 mV. This paradigm is delivered three times once every 20 s. Cells are held at −90 mV with a 5 s pulse to −60 mV every 20 s for a total of 120 s between each set of three pulses. The cell is held at −80 mV. Then the cell is depolarized to +40 mV for 500 ms and then to −80 mV over a 100 ms ramp to elicit the hERG tail current. This paradigm is delivered once every 8 s. The Extracellular Solution (control) is applied first and the cell is stabilized in the solution for 5 min. Then the test compound is applied from low to high concentrations sequentially on the same cell. The cells are incubated with each test concentration for 5 min. Reference compounds Tetracaine Nifedipine and E-4031 are tested concurrently for hNav1.5, hCav1.2 and hERG, respectively, at multiple concentrations to obtain an IC50 value.
(§2) The amplitude of the sodium current is calculated by measuring the difference between the peak inward current on stepping to −10 mV (i.e., peak current) and the leak current. The sodium current is assessed in vehicle control conditions and then at the end of each five (5)-minute compound application. Individual cell results are normalized to the vehicle control amplitude and the mean ± SEM is calculated for each compound concentration. These values are then plotted and estimated IC50 curve fits are calculated. The maximum inward current elicited on stepping to +10 mV for 50msec from −60 mV is measured. Compound interaction is assessed by dividing post-current amplitude (at the end of each three (3)-minute compound application) by the vehicle control amplitude and the mean calculated for each compound concentration. These values are then plotted and estimated IC50 curve fits are calculated. The percent inhibition of the hERG channel is calculated by comparing the peak (hERG tail) current amplitude before and after application of the compound (the current difference is normalized to vehicle control values).

Nav1.5 (peak current) = molecular target: T2, Nav1.5 (peak current) (Homo sapiens, UniProt Q14524); experiment: QPatch ion channel assay; assay type: cell-based; conditions: read-out: % Inhibition (n = 2), Nav1.5
T2 construct: host or cells: HEK-293
Text: as §1, §2

hERG = molecular target: T3, hERG (Homo sapiens, UniProt Q12809); experiment: QPatch ion channel assay; assay type: cell-based; conditions: CHO-K1 cells stably transfected with human hERG, read-out: % Inhibition (n = 2), hERG
T3 construct: host or cells: CHO-K1
Text: as §1, §2

in vivo = conditions: female, CD-1, mouse, 30 mg/kg; for half-life: Plasma Half-life; for Vd: Plasma Vd
Procedure: The P. aeruginosa strain UNT034-1 (ATCC 27853) was used for infection studies. Female CD-1 mice (6–8 weeks old; 22 ± 2 g) were obtained from Envigo Laboratories (Indianapolis, IN, USA). All procedures were conducted in accordance with protocols approved by the University of North Texas Health Science Center (UNTHSC) Institutional Animal Care and Use Committee (protocol IACUC-2021-0003). Neutropenia was induced by intraperitoneal (i.p.) injection of cyclophosphamide (Cytoxan) at 150 mg/kg on day 4 and 100 mg/kg on day 1 before infection. Mice were anesthetized by i.p. injection of ketamine (40 mg/kg) and xylazine (6 mg/kg) and intranasally inoculated with 0.05 mL of the prepared P. aeruginosa suspension by placing droplets onto the nares and allowing inhalation. Following inoculation, mice were returned to cages for recovery. […] At predetermined time points (0.083, 0.25, 0.5, 1, 2, 4, 8, and 24 h), groups of three mice were euthanized by CO2 asphyxiation. Blood was collected by cardiac puncture into tubes containing EDTA or serum separator gel, centrifuged at 4 °C, and plasma or serum was harvested within 30 min of collection. Bronchoalveolar lavage fluid (BALF) was collected to determine drug concentrations at the site of infection. Briefly, 1.2 mL of sterile 0.9% NaCl was instilled into the lungs via the trachea and gently withdrawn. The epithelial lining fluid (ELF) dilution factor was determined by the blood urea nitrogen (BUN) method. Plasma and BALF samples were stored at −80 °C until analysis. Drug concentrations were quantified by LC-MS/MS using a Surveyor HPLC system coupled to a TSQ Quantum Ultra triple-quadrupole mass spectrometer (Thermo Scientific). Separation was achieved on a Phenomenex Kinetex PFP column (50 × 2.1 mm, 2.6 µm) with a mobile phase gradient of water (0.1% formic acid, A) and acetonitrile (0.1% formic acid, B) at 0.5 mL/min. The gradient proceeded from 10% to 90% B over 4 min, held for 1 min, and re-equilibrated to initial conditions. The column oven was maintained at 30 °C. […] Samples (50 µL plasma or BALF) were spiked with 10 µL of internal standard in methanol, precipitated with 150 µL acetonitrile, vortexed, sonicated for 10 min, and centrifuged at 14,500 rpm for 5 min. A 100 µL aliquot of the supernatant was transferred to autosampler vials, and 10 µL was injected for analysis. Concentration-time data were analyzed using noncompartmental methods (PK Solutions v2.0; Summit Research Services, Montrose, CO, USA). Parameters including area under the concentration-time curve (AUC0-t), maximum concentration (Cmax), time to Cmax (Tmax), apparent volume of distribution (Vd), systemic clearance (CL), and terminal half-life (t½) were calculated. Data are presented as means ± standard deviation (SD) for three animals per time point.

T2 sequence (Q14524 whole entry): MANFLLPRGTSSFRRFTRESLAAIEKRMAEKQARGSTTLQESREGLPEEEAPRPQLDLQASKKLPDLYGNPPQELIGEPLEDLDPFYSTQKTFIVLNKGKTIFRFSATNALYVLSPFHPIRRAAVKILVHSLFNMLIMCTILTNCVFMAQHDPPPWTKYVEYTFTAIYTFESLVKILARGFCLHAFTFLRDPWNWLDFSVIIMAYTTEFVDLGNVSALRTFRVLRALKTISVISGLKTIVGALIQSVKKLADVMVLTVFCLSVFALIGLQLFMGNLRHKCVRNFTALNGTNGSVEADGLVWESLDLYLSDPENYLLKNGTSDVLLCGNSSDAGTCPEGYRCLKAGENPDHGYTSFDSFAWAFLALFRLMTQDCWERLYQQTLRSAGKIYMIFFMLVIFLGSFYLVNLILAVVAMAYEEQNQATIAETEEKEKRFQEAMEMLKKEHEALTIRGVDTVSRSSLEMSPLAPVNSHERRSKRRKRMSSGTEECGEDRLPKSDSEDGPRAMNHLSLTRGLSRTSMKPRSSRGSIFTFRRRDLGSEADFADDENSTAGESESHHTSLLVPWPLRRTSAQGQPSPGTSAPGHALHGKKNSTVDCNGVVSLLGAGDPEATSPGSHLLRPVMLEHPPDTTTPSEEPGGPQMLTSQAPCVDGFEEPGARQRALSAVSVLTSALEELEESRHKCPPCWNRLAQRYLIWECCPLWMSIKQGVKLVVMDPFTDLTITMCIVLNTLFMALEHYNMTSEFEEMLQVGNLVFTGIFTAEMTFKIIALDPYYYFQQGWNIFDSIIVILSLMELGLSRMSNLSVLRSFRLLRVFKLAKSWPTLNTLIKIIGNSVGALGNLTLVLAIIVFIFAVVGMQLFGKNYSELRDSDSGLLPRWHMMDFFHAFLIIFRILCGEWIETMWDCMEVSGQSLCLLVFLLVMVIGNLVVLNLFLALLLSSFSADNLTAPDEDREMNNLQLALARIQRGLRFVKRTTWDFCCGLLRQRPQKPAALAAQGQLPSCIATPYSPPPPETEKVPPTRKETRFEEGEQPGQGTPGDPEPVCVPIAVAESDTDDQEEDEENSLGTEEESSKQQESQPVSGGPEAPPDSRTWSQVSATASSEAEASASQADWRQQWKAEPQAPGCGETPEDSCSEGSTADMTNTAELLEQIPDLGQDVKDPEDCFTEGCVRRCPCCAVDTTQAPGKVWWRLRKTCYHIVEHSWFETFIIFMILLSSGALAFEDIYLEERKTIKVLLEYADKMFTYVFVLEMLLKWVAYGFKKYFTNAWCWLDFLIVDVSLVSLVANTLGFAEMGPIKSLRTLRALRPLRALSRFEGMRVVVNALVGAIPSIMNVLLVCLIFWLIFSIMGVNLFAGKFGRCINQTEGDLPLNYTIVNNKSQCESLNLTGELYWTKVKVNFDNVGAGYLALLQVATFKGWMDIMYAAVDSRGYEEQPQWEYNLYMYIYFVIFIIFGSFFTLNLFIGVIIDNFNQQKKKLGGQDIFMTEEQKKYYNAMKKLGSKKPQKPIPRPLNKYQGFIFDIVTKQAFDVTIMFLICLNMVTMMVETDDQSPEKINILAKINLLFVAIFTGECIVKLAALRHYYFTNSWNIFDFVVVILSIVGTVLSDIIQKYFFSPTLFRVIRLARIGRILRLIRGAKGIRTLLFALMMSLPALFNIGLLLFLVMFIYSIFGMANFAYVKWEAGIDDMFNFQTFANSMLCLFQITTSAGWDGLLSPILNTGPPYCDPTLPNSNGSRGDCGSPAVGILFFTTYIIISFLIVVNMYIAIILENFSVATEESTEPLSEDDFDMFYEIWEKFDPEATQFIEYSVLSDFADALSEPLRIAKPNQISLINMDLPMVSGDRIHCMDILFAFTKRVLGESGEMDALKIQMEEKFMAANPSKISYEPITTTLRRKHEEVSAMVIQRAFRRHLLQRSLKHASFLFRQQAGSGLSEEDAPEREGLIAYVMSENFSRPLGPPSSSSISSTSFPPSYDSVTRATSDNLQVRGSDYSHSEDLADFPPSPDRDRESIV
T3 sequence (Q12809 whole entry): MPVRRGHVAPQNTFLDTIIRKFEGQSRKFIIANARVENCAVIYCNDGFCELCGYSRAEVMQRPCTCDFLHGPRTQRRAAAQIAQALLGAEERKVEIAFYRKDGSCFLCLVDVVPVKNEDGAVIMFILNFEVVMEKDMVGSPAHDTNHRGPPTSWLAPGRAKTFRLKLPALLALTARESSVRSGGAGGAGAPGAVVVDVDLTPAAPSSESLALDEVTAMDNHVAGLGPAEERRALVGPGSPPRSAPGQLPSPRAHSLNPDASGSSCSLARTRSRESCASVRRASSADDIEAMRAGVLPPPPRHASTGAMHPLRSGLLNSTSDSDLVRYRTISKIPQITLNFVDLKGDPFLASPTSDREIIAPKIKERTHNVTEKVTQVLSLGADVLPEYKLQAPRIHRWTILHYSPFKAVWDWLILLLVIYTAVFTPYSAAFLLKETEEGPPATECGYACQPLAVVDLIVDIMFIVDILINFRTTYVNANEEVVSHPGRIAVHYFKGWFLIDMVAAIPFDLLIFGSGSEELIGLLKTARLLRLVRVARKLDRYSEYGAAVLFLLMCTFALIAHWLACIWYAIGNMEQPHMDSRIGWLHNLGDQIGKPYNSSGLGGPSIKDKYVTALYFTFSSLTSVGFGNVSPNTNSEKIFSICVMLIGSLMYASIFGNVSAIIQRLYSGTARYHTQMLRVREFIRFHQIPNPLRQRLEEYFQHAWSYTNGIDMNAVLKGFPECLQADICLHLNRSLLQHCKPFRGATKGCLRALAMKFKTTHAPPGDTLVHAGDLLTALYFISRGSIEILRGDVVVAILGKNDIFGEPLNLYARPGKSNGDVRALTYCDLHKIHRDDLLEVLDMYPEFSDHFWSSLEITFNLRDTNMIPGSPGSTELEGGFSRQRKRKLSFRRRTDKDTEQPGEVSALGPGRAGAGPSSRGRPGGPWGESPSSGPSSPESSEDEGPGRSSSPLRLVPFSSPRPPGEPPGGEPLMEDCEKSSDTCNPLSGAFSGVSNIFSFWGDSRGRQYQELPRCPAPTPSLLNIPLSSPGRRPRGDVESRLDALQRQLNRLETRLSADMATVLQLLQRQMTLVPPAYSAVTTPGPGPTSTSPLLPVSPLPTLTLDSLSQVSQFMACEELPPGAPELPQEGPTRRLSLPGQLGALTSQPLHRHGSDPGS

SMILES	inhibition at 3 min, 10 µM (Cav1.2) [%]	inhibition at 5 min, 10 µM (Nav1.5 (peak current)) [%]	inhibition at 5 min, 10 µM (hERG) [%]	AUC(0-t) (in vivo; BALF AUC 0-t) [ng·h/mL]	Tmax (in vivo; BALF Tmax) [min]	AUC(0-t) (in vivo; Plasma AUC 0-t) [ng·h/mL]	Cmax (in vivo; Plasma Cmax) [ng/mL]	half-life (in vivo) [min]	Tmax (in vivo; Plasma Tmax) [min]	Vd (in vivo) [L/kg]	Cmax (in vivo; BALF Cmax) [ng/mL]	AUC(0-t) (in vivo; sc, BALF AUC 0-t) [ng·h/mL]
NCC(F)C[C@@H](N)CNC(=O)c1cc2ccc(-c3ccc(F)cc3)cc2[nH]1 (stereo partly drawn) [TXA11114, N-((2R)-2,5-diamino-4-fluoropentyl)-6-(4-fluorophenyl)-1H-indole-2-carboxamide]	0.2	-3.7	10.9	13200	240	30700	13000	110	4.98	2.5	–	–
NC[C@@H]1CN[C@H](CNC(=O)c2cc3ccc(-c4ccc(F)cc4)cc3[nH]2)C1 [TXA09155]	12.7	0.1	9.2	–	–	–	–	–	–	–	–	–
C[C@H]1COc2c(N3CCN(C)CC3)c(F)cc3c(=O)c(C(=O)O)cn1c23 [Levofloxacin, levofloxacin]	–	–	–	–	15	32900	24100	88.8	15	1.89	2000	3900
